Test results published in PubChem BioAssay (NCI).
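Grown in 96-well plates, cells were treated for 48 hours with each compound at five concentrations. Insufficient inhibition: endpoint recorded as highest concentration tested. GI50: concentration for 50% inhibition of growth. At the TGI there is no net growth.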

Legend:
Test in all cases: NCI anticancer screen, dose series, 48 h
PC-3 prostate = tested on: PC-3 prostate
SK-OV-3 ovarian = tested on: SK-OV-3 ovarian
MCF7 breast = tested on: MCF7 breast
SNB-19 CNS = tested on: SNB-19 CNS
NCI-H226 lung = tested on: NCI-H226 lung
SK-MEL-28 melanoma = tested on: SK-MEL-28 melanoma
A498 renal = tested on: A498 renal
ACHN renal = tested on: ACHN renal
UACC-257 melanoma = tested on: UACC-257 melanoma
MDA-MB-435 = tested on: MDA-MB-435
SNB-75 CNS = tested on: SNB-75 CNS
SK-MEL-2 melanoma = tested on: SK-MEL-2 melanoma
MALME-3M melanoma = tested on: MALME-3M melanoma
NCI/ADR-RES ovarian = tested on: NCI/ADR-RES ovarian
DU-145 prostate = tested on: DU-145 prostate
NCI-H460 lung = tested on: NCI-H460 lung
HS 578T breast = tested on: HS 578T breast
HCT-15 colon = tested on: HCT-15 colon
OVCAR-8 ovarian = tested on: OVCAR-8 ovarian
HCC-2998 colon = tested on: HCC-2998 colon
HL-60(TB) leukemia = tested on: HL-60(TB) leukemia
CAKI-1 renal = tested on: CAKI-1 renal
IGROV1 ovarian = tested on: IGROV1 ovarian
EKVX NSCLC = tested on: EKVX NSCLC
BT-549 breast = tested on: BT-549 breast
TK-10 renal = tested on: TK-10 renal
SF-295 CNS = tested on: SF-295 CNS
786-0 renal = tested on: 786-0 renal
OVCAR-3 ovarian = tested on: OVCAR-3 ovarian
M14 melanoma = tested on: M14 melanoma
SK-MEL-5 melanoma = tested on: SK-MEL-5 melanoma
NCI-H522 lung = tested on: NCI-H522 lung
RXF 393 renal = tested on: RXF 393 renal
RPMI-8226 leukemia = tested on: RPMI-8226 leukemia
SF-268 CNS = tested on: SF-268 CNS
LOX IMVI melanoma = tested on: LOX IMVI melanoma
HOP-92 NSCLC = tested on: HOP-92 NSCLC
T-47D breast = tested on: T-47D breast
U251 CNS = tested on: U251 CNS
SN12C renal = tested on: SN12C renal
MDA-MB-231 breast = tested on: MDA-MB-231 breast
SW-620 colon = tested on: SW-620 colon
CCRF-CEM leukemia = tested on: CCRF-CEM leukemia

Cc1ccc(NC(=O)c2cc(/C=C/C(=O)NO)cc(C(F)(F)F)c2)cc1Nc1nccc(-c2cccnc2)n1
GI50 (PC-3 prostate): 3.02 µM
TGI (PC-3 prostate): > 100 µM
GI50 (SK-OV-3 ovarian): 1.83 µM
TGI (SK-OV-3 ovarian): 3.78 µM
GI50 (MCF7 breast): 1.75 µM
TGI (MCF7 breast): 5.85 µM
GI50 (SNB-19 CNS): 2.7 µM
TGI (SNB-19 CNS): 7.62 µM
GI50 (NCI-H226 lung): 1.78 µM
TGI (NCI-H226 lung): 5.09 µM
GI50 (SK-MEL-28 melanoma): 1.56 µM
TGI (SK-MEL-28 melanoma): 5.27 µM
GI50 (A498 renal): 3.13 µM
TGI (A498 renal): 6.65 µM
GI50 (ACHN renal): 3.12 µM
TGI (ACHN renal): > 100 µM
GI50 (UACC-257 melanoma): 1.32 µM
TGI (UACC-257 melanoma): 2.8 µM
GI50 (MDA-MB-435): 1.53 µM
TGI (MDA-MB-435): 4.24 µM
GI50 (SNB-75 CNS): 2.66 µM
TGI (SNB-75 CNS): 5.83 µM
GI50 (SK-MEL-2 melanoma): 1.09 µM
TGI (SK-MEL-2 melanoma): 3.32 µM
GI50 (MALME-3M melanoma): 0.58 µM
TGI (MALME-3M melanoma): 3.24 µM
GI50 (NCI/ADR-RES ovarian): 44 µM
TGI (NCI/ADR-RES ovarian): > 100 µM
GI50 (DU-145 prostate): 2.04 µM
TGI (DU-145 prostate): 6.63 µM
GI50 (NCI-H460 lung): 2 µM
TGI (NCI-H460 lung): 12.3 µM
GI50 (HS 578T breast): 1.83 µM
TGI (HS 578T breast): 6.35 µM
GI50 (HCT-15 colon): 3.34 µM
TGI (HCT-15 colon): > 100 µM
GI50 (OVCAR-8 ovarian): 1.44 µM
TGI (OVCAR-8 ovarian): 4.68 µM
GI50 (HCC-2998 colon): 1.76 µM
TGI (HCC-2998 colon): 3.56 µM
GI50 (HL-60(TB) leukemia): 1.08 µM
TGI (HL-60(TB) leukemia): 3.73 µM
GI50 (CAKI-1 renal): 2.23 µM
TGI (CAKI-1 renal): 5.14 µM
GI50 (IGROV1 ovarian): 1.74 µM
TGI (IGROV1 ovarian): 4.36 µM
GI50 (EKVX NSCLC): 3.48 µM
TGI (EKVX NSCLC): > 100 µM
GI50 (BT-549 breast): 3.3 µM
TGI (BT-549 breast): 8.5 µM
GI50 (TK-10 renal): 2.98 µM
TGI (TK-10 renal): 6.91 µM
GI50 (SF-295 CNS): 1.77 µM
TGI (SF-295 CNS): 3.43 µM
GI50 (786-0 renal): 2.41 µM
TGI (786-0 renal): 5.31 µM
GI50 (OVCAR-3 ovarian): 1.52 µM
TGI (OVCAR-3 ovarian): 4.21 µM
GI50 (M14 melanoma): 1.34 µM
TGI (M14 melanoma): 3.71 µM
GI50 (SK-MEL-5 melanoma): 1.57 µM
TGI (SK-MEL-5 melanoma): 3.01 µM
GI50 (NCI-H522 lung): 1.35 µM
TGI (NCI-H522 lung): 3.19 µM
GI50 (RXF 393 renal): 1.66 µM
TGI (RXF 393 renal): 3.65 µM
GI50 (RPMI-8226 leukemia): 2.11 µM
TGI (RPMI-8226 leukemia): 8.76 µM
GI50 (SF-268 CNS): 2.35 µM
TGI (SF-268 CNS): 5.7 µM
GI50 (LOX IMVI melanoma): 1.35 µM
TGI (LOX IMVI melanoma): 3.02 µM
GI50 (HOP-92 NSCLC): 0.58 µM
TGI (HOP-92 NSCLC): 2.71 µM
GI50 (T-47D breast): 1.41 µM
TGI (T-47D breast): 5.8 µM
GI50 (U251 CNS): 1.49 µM
TGI (U251 CNS): 3.03 µM
GI50 (SN12C renal): 2.54 µM
TGI (SN12C renal): > 100 µM
GI50 (MDA-MB-231 breast): 1.14 µM
TGI (MDA-MB-231 breast): 4.51 µM
GI50 (SW-620 colon): 1.54 µM
TGI (SW-620 colon): 5.66 µM
GI50 (CCRF-CEM leukemia): 0.559 µM
TGI (CCRF-CEM leukemia): > 100 µM
